Laboratory results published in patent US6579696B1, “Polymyxin B conjugates” (priority 1992, dated 2003).
Read-outs that look alike come from different tables or passages of the source.

What was measured:
E. coli J5 [1] = assay type: cell-based; settings: Table 40
[2] = test system: mouse monoclonal anti-fluorescein antibody (#4-4-20); assay type: binding
From the text: Millipolarization data was hand calculated using the above equations as described for the fully automated instrument. Total intensity is not represented in the following tables. Table 48 illustrates the reactivity of PMB-Cys-Fl when reacted with mouse monoclonal anti-fluorescein antibody (#4-4-20) obtained from Edward M. Voss at the University of Illinois Urbana.

E. coli 0111:B4 bacteria = assay type: binding; settings: in °C (unit assumed)
E. coli 0111: B4 = assay type: binding; settings: bacteria coated at 5.0 ug/ml, washed; no antibody
Protocol: (§1) Staph. aureus and E. coli 0111: B4 were cultured in TSB media at 37 degrees C with shaking. Cells were collected by centrifugation and suspended in 50 mM sodium phosphate buffer, pH 6.8. The cells were again collected by centrifugation and suspended in […] sodium phosphate buffer containing 0.025% sodium azide (buffer).
(§2) The bacteria were diluted with buffer to an absorbance of 1.0 at 620 nm. PMB-Cys-Mal-FL was added to 2.5 ml of each diluted bacterial suspension, to a final concentration of 5.0 ug/ml. The suspensions were incubated at ambient temperature for 5 minutes. The bacteria were collected by centrifugation and suspended in buffer, repeated for a total of three times. The bacteria were then suspended in buffer and Tween 20 detergent was added to a final concentration of 0.1%. The bacteria were again collected by centrifugation and suspended in 1.5 ml buffer without Tween 20.
(§3) The bacteria were diluted 10 fold with buffer and fluorescence was measured in a Sequoia-Turner model 450 Fluorometer using NB490 and SC515 filters with the gain at 5. Mouse monoclonal anti-fluorescein antibody 4-4-20 was added with mixing to the bacterial suspensions. Table 50 summarizes the experimental results.

Staph. aureus = assay type: binding; settings: bacteria coated at 5.0 ug/ml, washed
Protocol: as §1, §2, §3

E. coli 0111:B4 [3] = assay type: cell-based; parameters: key: −: no agglutination; +: microagglutination; +++: macroagglutination; settings: avidin beads loaded with compound
Protocol: (§4) 100 ul polystyrene beads (Spherotech […], 5% w/v) were aliquoted to two 1.5 mL microcentrifuge tubes, centrifuged 1 min at 12,000 g in microcentrifuge and washed 2×with 1 ml PBS (vortexed and recentrifuged 1-2 min after each wash). The beads were resuspended in 900 ul PBS, and 100 ul of 1 mg/ml solution of avidin (Sigma) added, and the tubes rotated overnight at room temperature. The beads were pelleted, and washed sequentially as described above with 1 ml PBS, PBS+0.5% tween 20 (PBST), and PBS, and each sample resuspended in 200 ul PBS. The samples were pooled and stored at 4 degrees.
(§5) 20 ul avidin coated beads were aliquoted into 2×1.5 ml microcentrifuge tubes, and non-specifically binding sites blocked by rotating with 1 ml PBS+1% BSA for 1 hr at room temperature. […] The samples were pelleted, and washed with 1 ml PBS, repelleted and resuspended with 20 ul PBS. III Bacterial Agglutination Assays
(§6) 5 ul of each resin was added to 20 ul bacteria (1/10 dilution of a saturated overnight culture) in independant depression wells (2 wells/bacteria tested). The samples were incubated 30 min at 37 degrees, swirled, and agglutination scored. (Note that −=no agglutination, +=microagglutination and +++=macroagglutination)

E. coli HB101 = assay type: cell-based; parameters: key: −: no agglutination; +: microagglutination; +++: macroagglutination; settings: avidin beads loaded with compound
Protocol: as §4, §5, §6

Salmonella 34576 = assay type: cell-based; parameters: key: −: no agglutination; +: microagglutination; +++: macroagglutination; settings: avidin beads loaded with compound
Protocol: as §4, §5, §6

E. coli J5 [4] = assay type: cell-based; parameters: key: −: no agglutination; +: microagglutination; +++: macroagglutination; settings: for Agglutination by avidin beads: Table 53
Protocol: as §4, §5, §6
To determine if free Immunoadaptor™ compounds can also stably bind surface exposed bacterial structures, agglutination assays were performed using bacteria prebound to Immunoadaptor™ compounds. The assay was performed with J5 bacteria, since the agglutination signal (see table above) was the strongest with this strain. 40 ul avidin coated resin was blocked for 1 hr at room temperature with 1 ml PBS+1% BSA, pelleted as described above, and resuspended in 40 ul PBS. […] The following assays were performed:
Incubated 1 hr at 37 degrees in depression well, swirled and agglutination scored.
Incubated 10 min at 37 degrees then added 5 ul avidin coated beads. Incubated 1 hr at 37 degrees in depression well, swirled and agglutination scored.
Incubated 15 min at 37 degrees, pelleted cells by centrifugation, washed with 100 ul PBS (resuspended cells with micropipetter) and repelleted. Cells were resuspended in 80 ul PBS, 20 ul aliquots distributed to depression well, 5 ul avidin coated beads added, and, incubated 1 hr at 37 degrees, swirled and agglutination scored.

H16 bacterial strain = assay type: binding; settings: 1 ug/ml, Extravidin and anti-avidin chase
[5] = test system: J5 bacteria phagocytosed by J774A.1 mouse macrophage cell line; assay type: cell-based
E. coli 0111:B4 [6] = test system: E. coli 0111:B4
[7] = biological target: avidin and chicken anti-PMB antibody (Gallus gallus, UniProt P02701)
avidin and chicken anti-PMB antibody, sequence (P02701 25-152): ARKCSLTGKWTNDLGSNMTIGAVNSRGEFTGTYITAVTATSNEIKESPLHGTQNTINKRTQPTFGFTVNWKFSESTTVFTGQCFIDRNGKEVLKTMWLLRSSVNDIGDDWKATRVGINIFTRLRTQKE
Protocol: The capture ELISA was performed as described below. […] The coating suspensions were decanted, and all wells were washed three times using PBS+0.5% Tween 20 (PBST). In order to block non-specific binding sites, 100 ul of 1% BSA (Sigma, St. Louis, Mo.) in PBS (blocking solution) was then added to each well, and the plates were incubated for 1 hr. at 37° C.
The blocking solution was decanted, and duplicate samples of 150 ul of either PMB-Cy-Biotin or PMB-Cy-Fl added to the first well of a dilution series. The initial testing concentration of the premixed conjugate was 10 ng/ml in blocking buffer (see above), followed by 5 fold dilutions in blocking buffer. This was accomplished by serially transferring 30 ul aliquots to 120 ul buffer, mixing, and repeating the dilution into a fresh well. After the final dilution, 30 ul was removed from the well such that all wells contained 120 ul final volume. A total of 2 such dilutions were performed. […] Following this incubation, the serially diluted samples were decanted, and the wells were washed six times using PBST (Phosphate-Buffered Saline with Tween). To each well, 100 ul of 1/1000 diluted chicken anti-PMB antibody or chicken preimmune, diluted in blocking buffer was added, and the plate incubated 1 hr at 37° C. The antibody solutions were decanted and the plates were washed as described above. To each well, 100 ul of 1/1000 diluted rabbit anti-chicken IgG alkaline phosphatase (Sigma) diluted in blocking buffer was added, and the plate incubated 1 hr at 37° C. The antibody solutions were decanted and the plates were washed as described above, substituting 50 nM Na2CO3, pH 9.5 for the PBST in the final wash. The plates were developed by the addition of 100 ul of a solution containing 1 mg/ml para-nitro phenyl phosphate (Sigma, St. Louis, Mo.) dissolved in 50 nM Na2CO3, 10 mM MgCl2, pH 9.5 to each well, and incubating the plates at room temperature in the dark overnight. […] Only the ELISA readings from the maximally diluted samples in each dilution series are shown.

Substance: polymyxin B—cystiene—Maleimamide—fluorescein [PMB-Cys-Mal-FL]
- MIC (E. coli J5 [1]): 0.8 µg/mL
- mP ([2]; PMB-Cys-Mal-FL 10^−7 M alone): 32.5
- mP ([2]; antibody 5 × 10^-8 M & PMB-Cys-Mal-FL 10^-7 M): 390.3
- quenching of the intensity signal by anti-fluorescein antibody ([2]; not represented in Table 48): 95%
- mP (E. coli 0111:B4 bacteria; E. coli (2.7 × 10^8 bacteria) & PMB-Cys-Mal-Fl): 256.8
- mP (E. coli 0111:B4 bacteria; PMB-Cys-Mal-Fl (10^−8 M) alone): 57.3
- FLUORESCENCE of coated bacteria (E. coli 0111: B4): 40 AFU
- FLUORESCENCE of coated bacteria (Staph. aureus): 5 AFU
- Agglutination (E. coli 0111:B4 [3]): −
- Agglutination (E. coli HB101): −
- Agglutination (Salmonella 34576): −
- Agglutination by avidin beads (E. coli J5 [4]; Chase format): −
- Agglutination by avidin beads (E. coli J5 [4]; Premix format): −
- Agglutination by avidin beads (E. coli J5 [4]; Wash + Chase format): −
- Agglutination (E. coli J5 [4]; avidin beads loaded with compound): −
- ELISA titer (H16 bacterial strain; 2 × 10^5 bacteria): 0.005
- ELISA titer (H16 bacterial strain; 2 × 10^6 bacteria): 0.162
- % Macrophage with phagocytosed bacteria ([5]; Table 59, 0.5 ug/ml then 10 ug/ml anti-fluorescein antibody (chase)): 40%
- % Macrophage with phagocytosed bacteria ([5]; Table 59, 0.5 ug/ml with 10 ug/ml anti-fluorescein antibody (premix)): 29%
- % Macrophage with phagocytosed bacteria ([5]; Table 59, opsonin alone): 15%
- Recovered bacterial colonies ([5]; Table 59, opsonin alone): 29
- Recovered bacterial colonies ([5]; Table 59, then anti-fluorescein antibody (chase)): 76
- Recovered bacterial colonies ([5]; Table 59, with anti-fluorescein antibody (premix)): 52
- % Macrophage with phagocytosed bacteria ([5]; Table 60, 1×10^8 J5 bacteria opsonized, from 100 macrophage examined, conjugates 0.5 ug/ml, anti-avidin 1/500, anti-fluorescein antibody 25 ug/ml): 5%
- % Macrophage with phagocytosed bacteria ([5]; Table 61 (repeat assay), 1×10^8 J5 bacteria opsonized, from 100 macrophage examined, conjugates 0.5 ug/ml, anti-avidin 1/400, anti-fluorescein antibody 14 ug/ml): 8%
- enhancement of phagocytosis (in words) ([5]; with anti-fluorescein antibody): Clear elevation of phagocytosis
- MIC (E. coli 0111:B4 [6]; Table 40, first number of the cell): 0.9 µg/mL
- MIC (E. coli 0111:B4 [6]; Table 44): 1 µg/mL
- ELISA absorbency at 410 nm ([7]; Anti-PMB test antibody, Avidin coated wells, maximally diluted sample): 0.033
- ELISA absorbency at 410 nm ([7]; Anti-PMB, PBS coated wells): 0.016
- ELISA absorbency at 410 nm ([7]; Preimmune, Avidin coated wells): 0.010
- ELISA absorbency at 410 nm ([7]; Preimmune, PBS coated wells): 0.020
